Where two headings read alike, the source gives them in different places.

The values that follow come from PMC10584170, “Machine learning-based phenotypic imaging to characterise the targetable biology of Plasmodium falciparum male gametocytes for the development of transmission-blocking antimalarials” (PLOS Pathogens, 2023).

Series [1] has as its system P. falciparum male gametocytes. Nature of the series: P. falciparum Dual Gamete Formation Assay (PfDGFA), male readout (exflagellation). Format: cell-based, Plasmodium falciparum NF54. To be noted: for inhibition at 2 µM: 24h preincubation with gametocytes. The essentials: (§1)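 NF54 mature gametocytes (d14), cpd 24 h 37°C hypoxic gas; trigger: xanthurenic acid ookinete medium + Cy3 anti-Pfs25, 4°C 4 min → 28°C 4 min. Male: exflagellation centres, brightfield x6. Female: Pfs25+ gametes, fluorescence, +24 h 28°C dark.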

For series [2], the system named is P. falciparum female gametocytes. Nature of the series: P. falciparum Dual Gamete Formation Assay (PfDGFA), female readout (Pfs25-positive female gametes). The format is cell-based, Plasmodium falciparum NF54. The note with it: for inhibition at 2 µM: 24h preincubation with gametocytes. The gist of the method:
as §1

In series [3] the test system is P. falciparum male gametocytes. The series can be described thus: PhIDDLI timecourse assay, compound added at timepoints after triggering male gametogenesis. Format: cell-based, Plasmodium falciparum NF54. As for the experimental part:
To gain greater understanding of their activity, selected molecules displaying different inhibition phenotypes in the initial screen were re-tested. Rather than subjecting gametocytes to a 24h preincubation prior to inducing gametogenesis, compounds were added at varying timepoints after triggering male gametogenesis. Samples were then fixed 20 min post-induction, imaged and analysed similarly using the PhIDDLI pipeline.
Alternatively, if compound action over time was to be assessed, 1.5ml tubes with appropriate dilutions of test compounds were prepared for each timepoint. Gametogenesis was then triggered in the mature gametocyte culture with ookinete medium and temperature decrease from 37°C. At appropriate times, 200 μl of triggered culture was sampled and mixed with test compound. All samples were then allowed to continue gametogenesis and fixed as described previously with paraformaldehyde after 20 min (when a DMSO-treated sample could be expected to be exflagellating).
100 μl of the fixed cell suspensions were added to wells of a 24 well plate containing 1ml PBS and a poly-l-lysine-coated glass coverslip. Cells were allowed to settle and adhere to the coverslip overnight at 4°C before coverslips were transferred to a hydrophobic membrane (Parafilm) for immunofluorescence staining in a humidified, dark box. Cells were permeabilised with 0.1% Triton-X100 in PBS for 10 min before washing in PBS three times. Non-specific binding was blocked by incubating coverslips with PBS + 10% fetal bovine serum (FBS) (blocking buffer) for 1 h. Gametocytes and microgametes were visualised by labelling with an anti-alpha tubulin antibody (raised from chicken embryo brain tubulin but cross-reacts with many other species) (clone DM1A (Sigma)) 1:500 dilution in blocking buffer for 1 h, washed as before, and then stained with an anti-mouse Alexa488 secondary antibody (Thermo-Fisher) 1:1,000 dilution in blocking buffer for a further 1 h. After a final series of washes, the coverslips were mounted on glass slides with VectaShield mountant (Vector Laboratories) containing 4′,6-diamidino-2-phenylindole (DAPI) to visualise cellular DNA.
All slides were imaged using a Nikon Ti fluorescence microscope using an x100 oil objective and 1.5x zoom. For each sample, tubulin-postive, DAPI-positive stained gametocytes/gametes were imaged at random. Z-stack images with 0.3μm slices were captured for each field of view and images deconvolved and transformed by maximum intensity projection within the Nikon NIS Elements software. Within raw images, cells were initially identified by an automated analysis pipeline developed in ICY Bioimage Analysis based upon the intensity of the tubulin staining captured which assigns a region of interest (ROI) around each cell. All ROIs were reviewed by a trained operator and adjusted if necessary to reflect the true outline of the cell (for example if two cells touching had been allocated the same ROI). Raw images contained between 1 and 8 extractable cells.
Code for the PhIDDLI pipeline was written in Python 3.8 and executed by command line within a 64-bit Ubuntu virtual machine running within Oracle VM VirtualBox 6.1. […] Principle component analysis of compound phenotypes (Fig 5) was performed using ClustViz (https://biit.cs.ut.ee/clustvis/) using ln(x+1) transformation, and k-means clustering of the resultant PCA data was coded in R and executed in R Studio version 1.1.456 to identify optimum cluster using the elbow method.

Series [4] deals with calcium-dependent protein kinase 1 (PfCDPK1). To be noted: cited from earlier work.
Series [5] has as its system cyclin-dependent protein kinase 6 (PfPK6). The arrangement: method as in PMID 26934697. The note with it: cited from earlier work.
Another series deals with HepG2 cells. Nature of the series: HepG2 cytotoxicity counter-screen.
Series [6] has as its system P. falciparum protein kinase G (PfPKG). To be noted: cited from earlier work.

`CNC(=O)c1ccccc1Nc1nc(Nc2ccc(N3CCN(C)CC3)nc2)ncc1C.Cl` [TC11]: the “Cytotox ratio Pf Male” value in series [1] amounted to 13.8. Moreover, in series [1] (this study, read-out: Pf DGFA IC50 MALE), the IC50 is 250 nM. Besides, the “Cytotox ratio Pf Female” value in series [2] was 0.344. Further, the “cells showing apparent DNA replication” value in series [3] (compound added concurrent with induction, fixed 20 min post-induction, DMSO control 61.4%) is given as 18.6%. Besides, the figures for the effect on exflagellation result in series [3] (compound added concurrent with triggering male gametogenesis or 2 min later) and in series [3] (compound added later than 2 min post-induction (up to 10 min)) were “substantially reduced” and “inhibited exflagellation”, respectively. Further, in series [3] (compound added during the first 2 min of male gametogenesis), the “amounts of cells showing evidence of DNA replication” value is “markedly reduced”. Also, the “activity against recombinant PfCDPK1” value in series [4] (enzymatic assay) is listed as “active”. Besides, the “activity against recombinant PfPK6” value in series [5] is given as “active”. For the same compound, in the series with HepG2 cells (mean of the HepG2 TOX50 values), the “Mean TOX” value is 3.44 µM.

As to `CC(C)(CN)c1nc(-c2ccc(Cl)c(O)c2)c(-c2ccncc2)[nH]1.Cl` [TCMDC-140369], the inhibition at 2 µM stood at 95% in series [1] (Plasmodium falciparum, average of replicates, read-out: Average inhibition male (%)); 96% in series [1] (Plasmodium falciparum, replicate R1, read-out: % inhibition male (individual replicates) R1); 97.9% in series [1] (Plasmodium falciparum, replicate R2, read-out: % inhibition male (individual replicates) R2); 95.1% in series [1] (Plasmodium falciparum, replicate R3, read-out: % inhibition male (individual replicates) R3); 90.9% in series [1] (Plasmodium falciparum, replicate R4, read-out: % inhibition male (individual replicates) R4); 51.4% in series [2] (Plasmodium falciparum, average of replicates, read-out: Average inhibition female (%)). The inhibition at 2 µM is 22.1% in series [2] (Plasmodium falciparum, replicate R1, read-out: % inhibition female (individual replicates) R1); 80% in series [2] (Plasmodium falciparum, replicate R2, read-out: % inhibition female (individual replicates) R2); 27.7% in series [2] (Plasmodium falciparum, replicate R3, read-out: % inhibition female (individual replicates) R3); 75.6% in series [2] (Plasmodium falciparum, replicate R4, read-out: % inhibition female (individual replicates) R4). Moreover, the IC50 was 910 nM in series [1] (Plasmodium falciparum, PfDGFA, 24 h incubation with gametocytes before induction, exflagellation readout, read-out: Male IC50) and 270 nM in series [2] (Plasmodium falciparum, PfDGFA, 24 h incubation with gametocytes before induction, female gamete readout, read-out: Female IC50). The “activity against PfCDPK1” value in series [4] is “additional activity”. Also, the PfPKG inhibition result in series [6] is on record as “PfPKG inhibitor”. In the series on HepG2 cells (cytotoxic activity against HepG2 cells), this compound returned a Tox50 of 17.63 µM.
